Results as given in paper PMC7718874, “Coupling of H3K27me3 recognition with transcriptional repression through the BAH-PHD-CPL2 complex in Arabidopsis” (Nature Communications, 2020).

Legend:
CDK kinases = details: cited from earlier work
[1] = system: nascent RNA (Pol II transcription rate) of AGO5, SUC5 and downstream nontarget genes; assay: Nuclear run-on assay with or without FLA (flavopiridol) treatment; set-up: species or system Arabidopsis; details: for NRO-qPCR, AT1G71900 / NRO-qPCR, AT2G27900 / NRO-qPCR, FT / NRO-qPCR, SUC5 / NRO-qPCR, AGO5: Figure 7c
Method: FLA treatment assay was performed as previous report. In brief, 2-week-old seedlings were collected and incubated with 200 μM FLA or mock solution (DMSO) overnight. The treated seedlings were subjected to total RNA extraction.
Nuclear run-on assay was performed as previous report with minor changes. In brief, after nuclei isolation with buffer (0.25 M sucrose, 15 mM PIPES pH 6.8, 5 mM MgCl2, 60 mM KCl, 15 mM NaCl, 1 mM CaCl2, 0.9% Triton X-100, and protease inhibitor cocktail), the nuclear pellet was resuspended with nuclei storage buffer (50 mM Tris-HCl pH 8, 0.1 mM EDTA, 5 mM MgCl2 and 40% glycerol) and mixed with transcription buffer (10 mM Tris-HCl, pH 8, 2.5 mM MgCl2, 150 mM KCl, 2 mM DTT, 80 units RNase inhibitor, 0.5 mM BrUTP, 1 mM ATP, 1 mM GTP, 1 mM CTP, 0.5 mM UTP, and 0.2% sarkosyl). After incubation at 30 °C for 15 min, the run-on reaction was stopped by adding Trizol reagent (Thermo). The nuclear RNAs were extracted and treated with DNase. The DNA-free RNAs were then inoculated with 2 μg anti-BrdU antibody (abcam) at room temperature for 30 min and precipitated by Dynabeads (Thermo). After two times washing, RNAs were extracted using Trizol reagent (Thermo). cDNAs were synthesized using SuperScript IV Reverse Transcriptase (Thermo) and subjected to qPCR analysis.

CN1CC[C@H](c2c(O)cc(O)c3c(=O)cc(-c4ccccc4Cl)oc23)[C@H](O)C1 [FLA, flavopiridol]
reduction of Pol II CTD phosphorylation (in words) (CDK kinases): reduce the phosphorylation of Pol II CTD by inhibiting the activity of CDK kinases
nascent RNA levels upon FLA treatment (in words) ([1]; 200 μM FLA overnight, 2-week-old seedlings, AGO5, SUC5 and downstream nontarget genes, BrUTP run-on, qPCR, normalized to 18 S rRNA, three biological repeats): greatly reduced
difference of nascent RNA levels between genotypes upon FLA treatment (in words) ([1]; 200 μM FLA overnight, Fig. 7c, three biological repeats): no obvious changes were observed between different genotypes
NRO-qPCR, AT1G71900 ([1]; Col-0 FLA, Repeat 1): 2e-5
NRO-qPCR, AT2G27900 ([1]; Col-0 FLA, Repeat 1): 4.5e-5
NRO-qPCR, FT ([1]; Col-0 FLA, Repeat 1): 2e-6
NRO-qPCR, SUC5 ([1]; Col-0 FLA, Repeat 1): 2e-6
NRO-qPCR, AT1G71900 ([1]; Col-0 FLA, Repeat 2): 1.6e-5
NRO-qPCR, AT2G27900 ([1]; Col-0 FLA, Repeat 2): 1.8e-5
NRO-qPCR, FT ([1]; Col-0 FLA, Repeat 2): 2e-6
NRO-qPCR, SUC5 ([1]; Col-0 FLA, Repeat 2): 1.2e-5
NRO-qPCR, AT1G71900 ([1]; Col-0 FLA, Repeat 3): 2e-6
NRO-qPCR, AT2G27900 ([1]; Col-0 FLA, Repeat 3): 4.7e-5
NRO-qPCR, SUC5 ([1]; Col-0 FLA, Repeat 3): 5e-6
NRO-qPCR, AGO5 ([1]; aipp2/paipp2 FLA, Repeat 1): 1.35e-7
NRO-qPCR, AT1G71900 ([1]; aipp2/paipp2 FLA, Repeat 1): 1e-5
NRO-qPCR, AT2G27900 ([1]; aipp2/paipp2 FLA, Repeat 1): 3.1e-5
NRO-qPCR, FT ([1]; aipp2/paipp2 FLA, Repeat 1): 5e-6
NRO-qPCR, SUC5 ([1]; aipp2/paipp2 FLA, Repeat 1): 1.1e-5
NRO-qPCR, AT1G71900 ([1]; aipp2/paipp2 FLA, Repeat 2): 1.3e-5
NRO-qPCR, AT2G27900 ([1]; aipp2/paipp2 FLA, Repeat 2): 2.6e-5
NRO-qPCR, FT ([1]; aipp2/paipp2 FLA, Repeat 2): 4e-6
NRO-qPCR, SUC5 ([1]; aipp2/paipp2 FLA, Repeat 2): 1.2e-5
NRO-qPCR, AGO5 ([1]; aipp2/paipp2 FLA, Repeat 3): 2.05e-6
NRO-qPCR, AT2G27900 ([1]; aipp2/paipp2 FLA, Repeat 3): 2.3e-5
NRO-qPCR, AT1G71900 ([1]; aipp3 FLA, Repeat 1): 1.1e-5
NRO-qPCR, AT2G27900 ([1]; aipp3 FLA, Repeat 1): 1.5e-5
NRO-qPCR, FT ([1]; aipp3 FLA, Repeat 1): 3e-6
NRO-qPCR, SUC5 ([1]; aipp3 FLA, Repeat 1): 2e-6
NRO-qPCR, AT1G71900 ([1]; aipp3 FLA, Repeat 2): 1e-5
NRO-qPCR, AT2G27900 ([1]; aipp3 FLA, Repeat 2): 5e-5
NRO-qPCR, FT ([1]; aipp3 FLA, Repeat 2): 1e-6
NRO-qPCR, SUC5 ([1]; aipp3 FLA, Repeat 2): 2e-6
NRO-qPCR, AT1G71900 ([1]; aipp3 FLA, Repeat 3): 1e-5
NRO-qPCR, AT2G27900 ([1]; aipp3 FLA, Repeat 3): 7.2e-5
NRO-qPCR, SUC5 ([1]; aipp3 FLA, Repeat 3): 1e-6
NRO-qPCR, AGO5 ([1]; cpl2 FLA, Repeat 1): 1.31e-6
NRO-qPCR, AT1G71900 ([1]; cpl2 FLA, Repeat 1): 2e-6
NRO-qPCR, AT2G27900 ([1]; cpl2 FLA, Repeat 1): 1.6e-5
NRO-qPCR, FT ([1]; cpl2 FLA, Repeat 1): 1e-6
NRO-qPCR, SUC5 ([1]; cpl2 FLA, Repeat 1): 1e-5
NRO-qPCR, AGO5 ([1]; cpl2 FLA, Repeat 2): 5.33e-7
NRO-qPCR, AT1G71900 ([1]; cpl2 FLA, Repeat 2): 2e-6
NRO-qPCR, AT2G27900 ([1]; cpl2 FLA, Repeat 2): 2.7e-5
NRO-qPCR, FT ([1]; cpl2 FLA, Repeat 2): 2e-6
NRO-qPCR, SUC5 ([1]; cpl2 FLA, Repeat 2): 7e-6
NRO-qPCR, AT2G27900 ([1]; cpl2 FLA, Repeat 3): 1.1e-5
NRO-qPCR, FT ([1]; cpl2 FLA, Repeat 3): 1e-6
NRO-qPCR, SUC5 ([1]; cpl2 FLA, Repeat 3): 8e-6
